This is an account of results in paper PMC5580926 (Antiviral therapy, 2016).

One data set is described as follows: in vitro. Conditions: human. The class given is cell-based.
The next data set deals with HCVcc-Luc (2a). Nature of the data set: microbe, parasite or virus in culture. Type of data set: cell-based, HCV. Conditions: read-out: EC50, HCVcc-Luc (2a).
Data set [1] in a line: ATPlite cytotoxicity assay under Con1b replicon efficacy assay conditions. The class given is cell-based. Conditions: human.
The test system of the next data set is Con1b replicon. Nature of the data set: Con1b replicon efficacy assay. The note with it: Hepatitis C virus, read-out: EC50, Con1b replicon. Type of data set: cell-based, HCV.

Where two headings read alike, the source gives them in different places.

Consider `CC(C)OC(=O)[C@H](C)N[P@](=O)(OC[C@H]1O[C@@H](n2ccc(=O)[nH]c2=O)[C@](C)(F)[C@@H]1O)Oc1ccccc1` [Sofosbuvir, sofosbuvir], for which the CC50 (in the data set “in vitro”; in data set [1]) was over 100000 nM throughout. For the same compound, the EC50 in the data set with HCVcc-Luc (2a) (Hepatitis C virus) was determined as 60 ± 2 nM; in the data set on Con1b replicon, 400 ± 100 nM.

In the case of `CN1CCN([C@@H](c2ccccc2)c2ccc(Cl)cc2)CC1` [(S)-CCZ, (S)-chlorcyclizine], the EC50 in the data set with HCVcc-Luc (2a) (single agent, mean of ≥3 independent tests ±SEM) was determined as 24 ± 9 nM.

Regarding `CCC[C@H](NC(=O)[C@@H]1[C@H]2CCC[C@H]2CN1C(=O)[C@@H](NC(=O)[C@@H](NC(=O)c1cnccn1)C1CCCCC1)C(C)(C)C)C(=O)C(=O)NC1CC1` [Telaprevir, telaprevir], the CC50 in the data set “in vitro” is over 100000 nM; in data set [1] (Con1b replicon cell line) it was 97800 ± 900 nM. Besides, the results for the EC50 with HCVcc-Luc (2a) (Hepatitis C virus) and in the data set with Con1b replicon were 200 ± 40 nM and 550 ± 50 nM, respectively.

For the compound `COC(=O)N[C@H](C(=O)N1CCC[C@H]1c1nc(-c2ccc(-c3ccc(-c4c[nH]c([C@@H]5CCCN5C(=O)[C@@H](NC(=O)OC)C(C)C)n4)cc3)cc2)c[nH]1)C(C)C` [Daclatasvir, daclatasvir], the CC50 was 45000 ± 1000 nM in the data set “in vitro” and 22000 ± 1000 nM in data set [1] (Con1b replicon cell line). Moreover, the EC50 in the data set with HCVcc-Luc (2a) (Hepatitis C virus) and with Con1b replicon was 0.04 ± 0.02 nM each time.

`C[C@@]1(O)[C@H](O)[C@@H](CO)O[C@H]1n1ccc(N)nc1=O` [2′-C-methylcytidine]: the CC50 (in the data set “in vitro”; in data set [1] (Con1b replicon cell line)) was over 100000 nM throughout. Also, the EC50 in the data set with HCVcc-Luc (2a) (Hepatitis C virus) came out at 1400 ± 400 nM; in the data set on Con1b replicon, 1610 ± 70 nM.

On to `CC(C)(C)NC(=O)N[C@H](C(=O)N1C[C@H]2[C@@H]([C@H]1C(=O)NC(CC1CCC1)C(=O)C(N)=O)C2(C)C)C(C)(C)C` (some centres unmarked) [Boceprevir, boceprevir], for which the cytotoxic concentration (CC50) (in the data set “in vitro”; in data set [1]) was over 100000 nM in each case. Moreover, in the data set on Con1b replicon, the EC50 turned out to be 620 ± 10 nM.
